This note sets out measurements from ChEMBL document CHEMBL6153025, “Multidrug-resistant bacteria quorum-sensing inhibitors: A particular focus on Pseudomonasaeruginosa” (Eur J Med Chem, 2025).

Experiment [1] relates to Pseudomonas aeruginosa. As to the kind of experiment: Antimicrobial activity against Pseudomonas aeruginosa PAO1 assessed as reduction in bacterial growth measured for 24 hrs by broth micro-dilution method. The format is functional. Background: Broth dilution looks for growth in wells or tubes with falling amounts of substance.
For experiment [2], the system named is Pseudomonas aeruginosa. As to the kind of experiment: Antivirulence activity against Pseudomonas aeruginosa PAO1 assessed as inhibition of pyocyanin production. The format is functional, organism-based.
Experiment [3] can be described thus: Inhibition of quorum sensing system in Pseudomonas aeruginosa PAO1-pqsA assessed as reduction in fluorescence intensity measured for 12 hrs by GFP reporter strain assay.
Experiment [4] concerns Pseudomonas aeruginosa. Briefly: Antimicrobial activity against Pseudomonas aeruginosa assessed as reduction in microbial growth. The format is functional, organism-based.
In experiment [5] the test system is Pseudomonas aeruginosa. As to the kind of experiment: Antibiofilm activity against Pseudomonas aeruginosa assessed as reduction in biofilm formation incubated for 24 hrs relative to control. The format is functional. More on the design: scale not given: the % may be the effect or the level left.
The test system of experiment [6] is Pseudomonas aeruginosa. Briefly: Anti-virulence activity against Pseudomonas aeruginosa assessed as reduction in protease production level at 100 uM incubated for 24 hrs by absorbance based assay relative to control. The format is functional. The arrangement: scale not given: the % may be the effect or the level left.
For experiment [7], the system named is Pseudomonas aeruginosa. As to the kind of experiment: Anti-virulence activity against Pseudomonas aeruginosa assessed as reduction in pyocyanin production level at 100 uM incubated for 24 hrs by absorbance based assay relative to control. The format is functional. The arrangement: scale not given: the % may be the effect or the level left.
Experiment [8] has as its system Pseudomonas aeruginosa. As to the kind of experiment: Antivirulence activity against Pseudomonas aeruginosa assessed as reduction in elastase level at 100 uM incubated for 24 hrs by elastin-Congo red staining based analysis relative to control. The format is functional. The arrangement: scale not given: the % may be the effect or the level left.
Experiment [9] concerns Pseudomonas aeruginosa. Briefly: Downregulation of lasR mRNA expression in Pseudomonas aeruginosa PAO1 incubated for 4 hrs by RT-qPCR analysis. The conditions noted are these: PAO1, 4 h. The format is functional, organism-based.
The test system of experiment [10] is Pseudomonas aeruginosa. Briefly: Downregulation of rhlR mRNA expression in Pseudomonas aeruginosa PAO1 incubated for 4 hrs by RT-qPCR analysis. The format is functional, organism-based. Conditions: PAO1, 4 h. (Real-time PCR tracks product formation cycle by cycle.)
For experiment [11], the system named is Pseudomonas aeruginosa. Briefly: Downregulation of pqsR mRNA expression in Pseudomonas aeruginosa PAO1 incubated for 4 hrs by RT-qPCR analysis. Format: functional, organism-based. The conditions noted are these: PAO1, 4 h.
Experiment [12] has as its system Pseudomonas aeruginosa. Briefly: Downregulation of lasA mRNA expression in Pseudomonas aeruginosa PAO1 incubated for 4 hrs by RT-qPCR analysis. Conditions: PAO1, 4 h. Format: functional, organism-based.
For experiment [13], the system named is Pseudomonas aeruginosa. Briefly: Downregulation of lasB mRNA expression in Pseudomonas aeruginosa PAO1 incubated for 4 hrs by RT-qPCR analysis. Format: functional, organism-based. Conditions: PAO1, 4 h.
Experiment [14] relates to Pseudomonas aeruginosa. Briefly: Downregulation of rhlI mRNA expression in Pseudomonas aeruginosa PAO1 incubated for 4 hrs by RT-qPCR analysis. Format: functional, organism-based. The conditions noted are these: PAO1, 4 h.
The subject of experiment [15] is Pseudomonas aeruginosa. Briefly: Antibiofilm activity against Pseudomonas aeruginosa PAO1 assessed as inhibition of biofilm formation at 1 to 100 uM incubated for 24 hrs by crystal violet staining based assay relative to control. Format: functional. More on the design: scale not given: the % may be the effect or the level left. Conditions: dose 1-100 µM.
Experiment [16] deals with Pseudomonas aeruginosa. Briefly: Inhibition of rhamnolipid production in Pseudomonas aeruginosa PAO1 incubated for 24 hrs by spectrophotometric analysis. Format: functional, organism-based. Conditions: PAO1, 24 h.

Converted amounts (≈) assume the structure as drawn.

For the compound `Fc1ccc(-c2nn(-c3ccc(Cl)cc3)cc2-c2nc(-c3ccccc3)c(-c3ccccc3)[nH]2)c(Br)c1`, the MIC (usually the smallest concentration in the dilution series that meets the test's criterion for growth inhibition) in the experiment on Pseudomonas aeruginosa [1] was 63 µg/mL (≈ 111 µM).
Consider `CC(C)=CCC/C(C)=C/CC/C(C)=C/CO` [FARNESOL], for which the IC50 (usually the concentration needed to halve the response being measured) amounted to 1.11 µg/mL (≈ 4.99 µM) in the experiment with Pseudomonas aeruginosa [2] and 0.14 µg/mL (≈ 0.63 µM) in experiment [3].
For `CCOP(=O)(NCCCCOc1cc(O)c2c(=O)cc(-c3ccccc3)oc2c1)OCC`, the 50% inhibitory concentration (IC50) in the experiment on Pseudomonas aeruginosa [4], in the experiment on Pseudomonas aeruginosa [9], in the experiment on Pseudomonas aeruginosa [10], in the experiment with Pseudomonas aeruginosa [11], in the experiment on Pseudomonas aeruginosa [12] and in the experiment with Pseudomonas aeruginosa [13] was 100 µM throughout. In the experiment on Pseudomonas aeruginosa [14], this compound displayed a half-inhibitory concentration (IC50) of 100 µM. Moreover, the Activity in the experiment on Pseudomonas aeruginosa [5] came out at 78%; in the experiment with Pseudomonas aeruginosa [6], 18.8%; in the experiment on Pseudomonas aeruginosa [7], 63.8%; in the experiment with Pseudomonas aeruginosa [8] it was 42.2%.
`O=C(/C=C/c1ccc(O)c(O)c1)c1ccc(O)cc1O` [BUTEIN]: the Activity in the experiment with Pseudomonas aeruginosa [15] came out at 72.45%. Also, 50 µM corresponded to half-maximal inhibition with Pseudomonas aeruginosa [16] (IC50).
